Columns and labels:
[1] = biological target: T1, human full length PIK3KA H1047R mutant (p110α/p85α complex) (Homo sapiens, UniProt P42336, H1047R); test: PI3K-alpha kinase (PIK3CA) biochemical activity, H1047R mutant, ADP-Glo; details: PI3K-α (PIK3CA) biochemical, H1047R mutant, Soy PI lipid substrate
T1 construct: Recombinant, catalytically active human full length PIK3KA Wild-type and H1047R mutant were purchased as 1:1 complex; 6xHis (N); purchased EMD Millipore Sigma 14-792M
Procedure, shortened: (§1)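 Full-length His-p110α/p85α complex, wild-type or H1047R, 1–5 nM, preincubated with compound 1 h at 27 °C in HEPES pH 7.4, 25 mM MgCl2, 0.01% Triton X-100, 1% DMSO. Reaction with 20 μM ATP and 50 μM PIP2diC8 or soy PI at 27 °C to ~10% ATP conversion; ADP-Glo luminescence. IC50 from 10-point four-parameter logistic fit.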

[2] = biological target: T2, human full length PIK3KA Wild-type (p110α/p85α complex) (Homo sapiens, UniProt P42336); test: PI3K-alpha kinase (PIK3CA) biochemical activity, wild-type, ADP-Glo; details: PI3K-α (PIK3CA) biochemical, Soy PI lipid substrate
T2 construct: Recombinant, catalytically active human full length PIK3KA Wild-type and H1047R mutant were purchased as 1:1 complex; 6xHis (N); purchased EMD Millipore Sigma 14-602M
Procedure, shortened: as §1

[3] = tested on: PI3K-α (PIK3CA) in MDA-MB-453 cells; test: PI3K-alpha kinase (PIK3CA) activity in vitro cell based assay, MDA-MB-453 cells, AlphaLisa SureFire; details: Homo sapiens, MDA-MB-453, 3 h, 0% FBS, 3 hours treatment, relative IC50
Procedure, shortened: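 MDA-MB-453 cells in serum-free MEM with 1 μg/mL insulin treated 3 h with 10-point 1:3 compound dilutions, 0.3% DMSO. Lysates read by AlphaLisa SureFire; percent inhibition relative to DMSO (max) and 1 μM GDC-0032 (min), duplicate means fitted to 4-parameter logistic for relative IC50.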

T1 sequence (P42336 whole entry H1047R): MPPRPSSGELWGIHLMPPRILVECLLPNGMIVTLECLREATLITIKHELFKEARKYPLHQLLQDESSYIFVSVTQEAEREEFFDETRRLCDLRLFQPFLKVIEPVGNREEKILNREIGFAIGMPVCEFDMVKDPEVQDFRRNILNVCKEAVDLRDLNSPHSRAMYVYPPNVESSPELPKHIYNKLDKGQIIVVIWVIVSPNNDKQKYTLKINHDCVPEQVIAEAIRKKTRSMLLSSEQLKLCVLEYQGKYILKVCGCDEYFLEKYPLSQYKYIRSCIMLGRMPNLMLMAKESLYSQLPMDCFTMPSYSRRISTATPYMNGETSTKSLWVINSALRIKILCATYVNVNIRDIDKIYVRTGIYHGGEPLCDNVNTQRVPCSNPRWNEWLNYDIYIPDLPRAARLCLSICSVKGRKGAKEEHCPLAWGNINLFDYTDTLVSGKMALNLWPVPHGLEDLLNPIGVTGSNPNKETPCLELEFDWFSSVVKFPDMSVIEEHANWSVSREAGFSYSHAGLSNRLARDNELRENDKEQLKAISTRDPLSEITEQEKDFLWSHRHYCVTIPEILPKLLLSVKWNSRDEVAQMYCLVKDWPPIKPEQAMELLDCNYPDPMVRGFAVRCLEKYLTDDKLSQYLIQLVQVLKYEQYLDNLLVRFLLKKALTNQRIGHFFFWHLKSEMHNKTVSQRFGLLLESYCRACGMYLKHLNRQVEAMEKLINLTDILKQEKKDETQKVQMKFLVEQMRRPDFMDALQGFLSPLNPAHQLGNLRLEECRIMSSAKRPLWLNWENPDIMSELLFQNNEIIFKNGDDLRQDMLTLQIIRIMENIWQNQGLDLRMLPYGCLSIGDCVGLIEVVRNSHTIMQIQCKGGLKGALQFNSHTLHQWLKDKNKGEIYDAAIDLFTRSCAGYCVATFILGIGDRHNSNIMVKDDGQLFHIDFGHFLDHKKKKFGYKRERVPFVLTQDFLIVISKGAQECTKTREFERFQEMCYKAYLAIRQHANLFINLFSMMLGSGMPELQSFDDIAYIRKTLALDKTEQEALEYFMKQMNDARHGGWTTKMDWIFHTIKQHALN
T1 sequence (P27986 whole entry partner): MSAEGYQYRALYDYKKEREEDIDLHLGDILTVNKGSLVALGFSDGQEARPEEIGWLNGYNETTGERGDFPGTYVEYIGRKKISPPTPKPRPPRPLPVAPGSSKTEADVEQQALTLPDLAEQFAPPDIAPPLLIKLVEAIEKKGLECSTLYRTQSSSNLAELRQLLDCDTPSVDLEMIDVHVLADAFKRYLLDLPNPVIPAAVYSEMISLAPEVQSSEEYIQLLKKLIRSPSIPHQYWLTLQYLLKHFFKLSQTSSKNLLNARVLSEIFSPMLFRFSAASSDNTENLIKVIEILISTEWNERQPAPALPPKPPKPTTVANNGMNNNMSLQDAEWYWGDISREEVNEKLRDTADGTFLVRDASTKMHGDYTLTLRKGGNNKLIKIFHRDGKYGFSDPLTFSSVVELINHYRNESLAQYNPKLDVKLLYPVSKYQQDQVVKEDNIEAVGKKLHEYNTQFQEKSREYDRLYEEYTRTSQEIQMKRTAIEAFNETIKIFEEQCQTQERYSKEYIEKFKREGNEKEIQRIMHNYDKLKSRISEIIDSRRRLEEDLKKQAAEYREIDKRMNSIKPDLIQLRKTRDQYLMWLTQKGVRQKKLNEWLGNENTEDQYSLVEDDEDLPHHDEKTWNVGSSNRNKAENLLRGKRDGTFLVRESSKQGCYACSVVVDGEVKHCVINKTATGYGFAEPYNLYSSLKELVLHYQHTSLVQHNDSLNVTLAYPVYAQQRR

Row | SMILES | IC50 [1] | IC50 [2] | IC50 [3]
1 | Cc1cc([C@@H](C)Nc2cccnc2C(=O)O)c2oc(-c3cccc(C#N)c3)c(C)c(=O)c2c1 [Example 125, 3-[[(1R)-1-[2-(3-Cyanophenyl)-3,6-dimethyl-4-oxo-chromen-8-yl]ethyl]amino]pyridine-2-carboxylic acid] | 500 to 1000 nM | 5000 to 10000 nM | 50 to 100 nM
2 | Cc1cc([C@@H](C)Nc2ccc(C(F)(F)F)nc2C(=O)O)c2oc(-c3cccc(C#N)c3)c(C)c(=O)c2c1 [Example 126, 3-[[(1R)-1-[2-(3-Cyanophenyl)-3,6-dimethyl-4-oxo-chromen-8-yl]ethyl]amino]-6-(trifluoromethyl)pyridine-2-carboxylic acid] | < 500 nM | 1000 to 5000 nM | < 50 nM
3 | Cc1cc([C@@H](C)Nc2ccc(C)nc2C(=O)O)c2oc(-c3cccc(C#N)c3)c(C)c(=O)c2c1 [Example 127, 3-[[(1R)-1-[2-(3-Cyanophenyl)-3,6-dimethyl-4-oxo-chromen-8-yl]ethyl]amino]-6-methyl-pyridine-2-carboxylic acid] | < 500 nM | 1000 to 5000 nM | 50 to 100 nM
4 | Cc1cc([C@@H](C)Nc2ccc(C(F)(F)F)cc2C(=O)O)c2oc(-c3cccc(C#N)c3)c(C)c(=O)c2c1 [Example 128, 2-[[(1R)-1-[2-(3-Cyanophenyl)-3,6-dimethyl-4-oxo-chromen-8-yl]ethyl]amino]-5-(trifluoromethyl)benzoic acid] | < 500 nM | 1000 to 5000 nM | 50 to 100 nM
5 | Cc1cc([C@@H](C)Nc2ccc(F)cc2C(=O)O)c2oc(-c3cccc(C#N)c3)c(C)c(=O)c2c1 [Example 129, 2-[[(1R)-1-[2-(3-Cyanophenyl)-3,6-dimethyl-4-oxo-chromen-8-yl]ethyl]amino]-5-fluoro-benzoic acid] | < 500 nM | < 500 nM | < 50 nM
6 | Cc1cc([C@@H](C)Nc2cccc(F)c2C(=O)O)c2oc(-c3ccc(F)cc3F)c(C)c(=O)c2c1 [Example 130, 2-[[(1R)-1-[2-(2,4-Difluorophenyl)-3,6-dimethyl-4-oxo-chromen-8-yl]ethyl]amino]-6-fluoro-benzoic acid 2,2,2-trifluoroacetic acid] | < 500 nM | 1000 to 5000 nM | < 50 nM
7 | Cc1cc([C@@H](C)Nc2ccc(Cl)nc2C(=O)O)c2oc(-c3ccc(F)cc3F)c(C)c(=O)c2c1 [Example 131, 6-Chloro-3-[[(1R)-1-[2-(2,4-difluorophenyl)-3,6-dimethyl-4-oxo-chromen-8-yl]ethyl]amino]pyridine-2-carboxylic acid 2,2,2-trifluoroacetic acid] | < 500 nM | 1000 to 5000 nM | < 50 nM
8 | Cc1cc([C@@H](C)Nc2ccc(C)nc2C(=O)O)c2oc(-c3cccc(F)c3)c(C)c(=O)c2c1 [Example 134, 3-[[(1R)-1-[2-(3-Fluorophenyl)-3,6-dimethyl-4-oxo-chromen-8-yl]ethyl]amino]-6-methyl-pyridine-2-carboxylic acid] | < 500 nM | 5000 to 10000 nM | < 50 nM
9 | COc1ccc(N[C@H](C)c2cc(C)cc3c(=O)c(C)c(-c4ccccc4)oc23)c(C(=O)O)n1 [Example 135, 6-Methoxy-3-[[(1R)-1-(3,6-dimethyl-4-oxo-2-phenyl-chromen-8-yl)ethyl]amino]pyridine-2-carboxylic acid 2,2,2-trifluoroacetic acid] | < 500 nM | 500 to 1000 nM | < 50 nM
10 | Cc1cc([C@@H](C)Nc2cccnc2C(=O)O)c2oc(-c3cccc(F)c3)c(C)c(=O)c2c1 [Example 136, 3-[[(1R)-1-[2-(3-Fluorophenyl)-3,6-dimethyl-4-oxo-chromen-8-yl]ethyl]amino]pyridine-2-carboxylic acid] | 500 to 1000 nM | 5000 to 10000 nM | 50 to 100 nM
11 | Cc1cc([C@@H](C)Nc2ncccc2C(=O)O)c2oc(-c3ccccc3)c(C)c(=O)c2c1 [Example 137, 2-[[(1R)-1-(3,6-Dimethyl-4-oxo-2-phenyl-chromen-8-yl)ethyl]amino]pyridine-3-carboxylic acid] | < 500 nM | 1000 to 5000 nM | < 50 nM
12 | Cc1cc([C@@H](C)Nc2cnccc2C(=O)O)c2oc(-c3ccccc3)c(C)c(=O)c2c1 [Example 138, 3-[[(1R)-1-(3,6-Dimethyl-4-oxo-2-phenyl-chromen-8-yl)ethyl]amino]pyridine-4-carboxylic acid] | < 500 nM | > 10000 nM | 100 to 500 nM
13 | Cc1cc(C(C)Nc2ccc(Cl)nc2C(=O)O)c2oc(-c3ccccc3)c(I)c(=O)c2c1 (stereo not drawn) [Example 140, 6-Chloro-3-[1-(3-iodo-6-methyl-4-oxo-2-phenyl-chromen-8-yl)ethylamino]pyridine-2-carboxylic acid 2,2,2-trifluoroacetic acid] | < 500 nM | 1000 to 5000 nM | < 50 nM
14 | Cc1cc([C@@H](C)Nc2ccc(Br)nc2C(=O)O)c2oc(-c3cccc(C#N)c3)c(C)c(=O)c2c1 [Example 141, 6-Bromo-3-[[(1R)-1-[2-(3-cyanophenyl)-3,6-dimethyl-4-oxo-chromen-8-yl]ethyl]amino]pyridine-2-carboxylic acid] | < 500 nM | < 500 nM | < 50 nM
15 | Cc1cc([C@@H](C)Nc2cccnc2C(=O)O)c2oc(-c3ccccc3F)c(C)c(=O)c2c1 [Example 142, 3-[[(1R)-1-[2-(2-Fluorophenyl)-3,6-dimethyl-4-oxo-chromen-8-yl]ethyl]amino]pyridine-2-carboxylic acid] | 1000 to 5000 nM | > 10000 nM | 50 to 100 nM
16 | Cc1cc([C@@H](C)Nc2ccc(Cl)cc2C(=O)O)c2oc(-c3cccc(C#N)c3)c(C)c(=O)c2c1 [Example 144, 5-Chloro-2-[[(1R)-1-[2-(3-cyanophenyl)-3,6-dimethyl-4-oxo-chromen-8-yl]ethyl]amino]benzoic acid] | < 500 nM | 500 to 1000 nM | < 50 nM
17 | Cc1cc([C@@H](C)Nc2ccc(Cl)cc2C(=O)O)c2oc(-c3cccc(F)c3)c(C)c(=O)c2c1 [Example 145, 5-Chloro-2-[[(1R)-1-[2-(3-fluorophenyl)-3,6-dimethyl-4-oxo-chromen-8-yl]ethyl]amino]benzoic acid] | < 500 nM | 1000 to 5000 nM | < 50 nM
18 | Cc1cc([C@@H](C)Nc2ccc(Cl)cc2C(=O)O)c2oc(-c3ccc(F)c(F)c3)c(C)c(=O)c2c1 [Example 146, 5-Chloro-2-[[(1R)-1-[2-(3,4-difluorophenyl)-3,6-dimethyl-4-oxo-chromen-8-yl]ethyl]amino]benzoic acid] | 1000 to 5000 nM | 1000 to 5000 nM | < 50 nM
19 | Cc1cc([C@@H](C)Nc2ccc(Cl)cc2C(=O)O)c2oc(-c3ccccc3F)c(C)c(=O)c2c1 [Example 147, 5-Chloro-2-[[(1R)-1-[2-(2-fluorophenyl)-3,6-dimethyl-4-oxo-chromen-8-yl]ethyl]amino]benzoic acid] | 500 to 1000 nM | 1000 to 5000 nM | < 50 nM
20 | Cc1cc([C@@H](C)Nc2ccc(C)nc2C(=O)O)c2oc(-c3ccccc3F)c(C)c(=O)c2c1 [Example 148, 3-[[(1R)-1-[2-(2-Fluorophenyl)-3,6-dimethyl-4-oxo-chromen-8-yl]ethyl]amino]-6-methyl-pyridine-2-carboxylic acid] | 500 to 1000 nM | 5000 to 10000 nM | < 50 nM
21 | COC(=O)c1ccc(-c2oc3c([C@@H](C)Nc4ccccc4C(=O)O)cc(C)cc3c(=O)c2C)cc1 [Example 149, 2-[[(1R)-1-[2-(4-Methoxycarbonylphenyl)-3,6-dimethyl-4-oxo-chromen-8-yl]ethyl]amino]benzoic acid] | < 500 nM | 1000 to 5000 nM | < 50 nM
22 | COC(=O)c1cccc(-c2oc3c([C@@H](C)Nc4ccccc4C(=O)O)cc(C)cc3c(=O)c2C)c1 [Example 150, 2-[[(1R)-1-[2-(3-Methoxycarbonylphenyl)-3,6-dimethyl-4-oxo-chromen-8-yl]ethyl]amino]benzoic acid] | < 500 nM | 1000 to 5000 nM | < 50 nM
23 | CNC(=O)c1ccc(-c2oc3c([C@@H](C)Nc4ccccc4C(=O)O)cc(C)cc3c(=O)c2C)cc1 [Example 151, 2-[[(1R)-1-[3,6-Dimethyl-2-[4-(methylcarbamoyl)phenyl]-4-oxo-chromen-8-yl]ethyl]amino]benzoic acid] | < 500 nM | 1000 to 5000 nM | < 50 nM
24 | CNC(=O)c1cccc(-c2oc3c([C@@H](C)Nc4ccccc4C(=O)O)cc(C)cc3c(=O)c2C)c1 [Example 152, 2-[[(1R)-1-[3,6-Dimethyl-2-[3-(methylcarbamoyl)phenyl]-4-oxo-chromen-8-yl]ethyl]amino]benzoic acid] | < 500 nM | > 10000 nM | < 50 nM
25 | COc1ncc(N[C@H](C)c2cc(C)cc3c(=O)c(C)c(-c4ccccc4)oc23)c(C(=O)O)n1 [Example 155, 2-Methoxy-5-[[(1R)-1-(3,6-dimethyl-4-oxo-2-phenyl-chromen-8-yl)ethyl]amino]pyrimidine-4-carboxylic acid 2,2,2-trifluoroacetic acid] | < 500 nM | 1000 to 5000 nM | 100 to 500 nM
